Measured values published in US20030083271A1, “Topoisomerase I selective cytotoxic sugar derivatives of indolopyrrolocarbazoles” (priority 2001, published 2003).

Experiments:
[1] = target: T1, purified human topoisomerase I (Homo sapiens, UniProt P11387); assay: Topoisomerase I-mediated single strand DNA break induction (in vitro); format: biochemical; conditions: median effect concentration for inducing single-strand breaks in the DNA substrate; read-out: Topo I EC50
T1 construct: purchased Topogen
T1 sequence (P11387 1-765): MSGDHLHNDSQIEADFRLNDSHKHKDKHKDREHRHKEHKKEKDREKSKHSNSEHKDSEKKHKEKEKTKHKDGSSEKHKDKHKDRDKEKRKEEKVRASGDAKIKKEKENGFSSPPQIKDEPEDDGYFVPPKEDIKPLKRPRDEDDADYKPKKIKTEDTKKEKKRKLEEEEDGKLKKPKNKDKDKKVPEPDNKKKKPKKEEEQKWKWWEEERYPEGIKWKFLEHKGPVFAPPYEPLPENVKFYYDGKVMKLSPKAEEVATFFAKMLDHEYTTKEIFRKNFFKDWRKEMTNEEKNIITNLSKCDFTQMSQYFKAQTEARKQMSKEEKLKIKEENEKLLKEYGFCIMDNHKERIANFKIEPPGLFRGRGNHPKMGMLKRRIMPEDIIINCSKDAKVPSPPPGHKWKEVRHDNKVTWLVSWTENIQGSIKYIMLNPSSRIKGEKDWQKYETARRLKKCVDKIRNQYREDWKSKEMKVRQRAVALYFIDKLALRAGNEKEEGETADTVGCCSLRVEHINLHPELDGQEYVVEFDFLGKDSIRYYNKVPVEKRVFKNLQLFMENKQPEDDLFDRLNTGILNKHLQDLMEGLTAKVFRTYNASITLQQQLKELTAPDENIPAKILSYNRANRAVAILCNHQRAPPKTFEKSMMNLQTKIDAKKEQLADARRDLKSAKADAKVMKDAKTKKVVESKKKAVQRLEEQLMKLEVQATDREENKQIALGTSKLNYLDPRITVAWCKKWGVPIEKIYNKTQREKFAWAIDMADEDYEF
Method: Topoisomerase I activity was measured as described below. The procedure for assaying compound-induced, topoisomerase I-mediated single strand breaks in DNA was essentially that described by Hsiang, et al., (J. Biol. Chem. 1985, 260, 14873-14878). Samples dissolved in 100% DMSO as either […] or 10 mg/ml solutions, unless otherwise stated, were diluted in Tris-EDTA buffer. Marine bacteriophage PM2 DNA (Boehringer Mannheim) was also diluted in Tris-EDTA buffer to a concentration of 0.02 μg/μl. Different dilutions of the compound being evaluated were mixed with diluted DNA and this mixture was added to […] (one unit of enzyme activity is defined as the amount capable of relaxing 100 ng of supercoiled DNA in approximately 30 minutes at 37° C.) aliquots of purified human topoisomerase I (Topogen) in 2X reaction buffer to start the reaction. The compound-DNA-enzyme mixture was incubated for 30 minutes at 37° C. before stopping the reaction with warm stop buffer containing sodium dodecyl sulfate and proteinase K (Sigma). These mixtures were allowed to incubate at 37° C. for another 10 minutes, at which time the mixtures were removed from the waterbath and extracted with a 24:1 mixture of chloroform/isoamyl alcohol. Following centrifugation, aliquots of the aqueous phases were placed in wells of a 0.9% agarose (SeaKem) gel in Tris-borate buffer containing 0.5 μg/ml of ethidium bromide and subjected to electrophoresis for 15 hours to separate the different topological isomers and nicked and broken DNAs. After destaining the gel in water, the ethidium bromide stained DNA reaction products were visualized by exposing the gel to UV irradiation. Negatives of the photographs of the irradiated gels were scanned with a densitometer and areas under the peaks were calculated in order to obtain percent single strand DNA break formation for each sample. A median effective concentration (EC50) was obtained for each compound by interpolation between points of the resulting dose-effect curve which defines the potency of the compound for its effect in inducing topoisomerase I-mediated single strand breaks in DNA. The topoisomerase I activities for certain compounds of the present invention are shown below in Table I.

[2] = test system: P388 murine leukemia cells; assay: In vitro cell-based cytotoxicity, parental P388 cells; conditions: Mus musculus, 72 h, median cytotoxic concentration, 3 days continuous exposure
Method: The proliferation inhibition activity against the murine P388 cell line was measured as follows. Evaluation of a soluble tetrazolium/formazan assay for cell growth and drug sensitivity in culture, using human and other tumor cell lines, was done according to the procedure described in Cancer Res. 1988, 48, 4827-4833. Cells were plated at 4000 cells/well in 96 well microtiter plates and 24 h later drugs were added and serially diluted. The cells were incubated at 37° C. for 72 h, at which time a tetrazolium dye, XTT, containing phenazine methosulfate was added. A dehydrogenase enzyme in live cells reduced the XTT to a form that absorbs light at 450 nm, which could be quantitated spectrophotometrically. The greater the absorbance the greater the number of live cells. The results are expressed as an IC50, which is the drug concentration required to inhibit cell proliferation (i.e., absorbance at 450 nm) to 50% of that of untreated control cells.
(§1) Similarly, P338 murine leukemia cells were maintained in RPMI 1640 supplemented with 20% fetal bovine serum and 10 μM 2-mercaptoethanol. A camptothecin resistant subline, P388/CPT45, was selected for resistance to camptothecin and is over 1000-fold resistant to this compound (Woessner, et al. Oncol. Res. 1992, 4, 481-488).
(§2) In vitro cytotoxicity was assessed in tissue culture cells by MTS (3-(4,5-dimethylthiazol-2-yl)-5-(3-carboxymethoxyphenyl)-2-(4-sulphenyl)-2H-tetrazolium, inner salt) assay (Riss and Moravec, Mol. Biol. Cell 1992, 3 (Suppl.), 184a). Cells were plated at 8,000 cell/well in 96 well microtiter plates and 24 hours later serial dilutions of the test compounds were made and added to the cells. The cells were incubated at 37° C. for 72 hours, at which time the tetrazolium dye, MTS at 333 μg/ml (final concentration), in combination with the electron coupling agent phenazine methosulfate at 25 μM (final concentration) was added. A dehydrogenase enzyme in live cells reduces the MTS to a form that absorbs light at 492 nm which can be quantitated spectrophotometrically. The greater the absorbance the greater the number of live cells. The results are expressed as an IC50, which is the drug concentration required to inhibit cell proliferation (i.e., absorbance at 492 nm) to 50% of that of untreated control cells.
The cytotoxic activity for certain compounds of the present invention, in both parental P388 and the camptothecin-resistant P388/CPT45 cell lines are shown below in Table I.

P388/CPT45 cells = assay: Cytotoxicity in camptothecin-resistant P388/CPT45 cells relative to parental P388 (selectivity index R/S); format: cell-based, murine; conditions: IC50 P388/CPT45 cells divided by IC50 parental P388 cells
Source text: The present invention includes fluoro sugar and other sugar derivatives of indolopyrrolocarbazoles of formula (I), as defined above. […] Most importantly, the instant invention describes topo I active compounds, related to compounds disclosed in WO 98/07433 and co-pending U.S. application, Ser. No. 08/914566 (both herein incorporated by reference), which display a surprising and unexpected selectivity index when evaluated for cytotoxicity in certain cell lines which express normal levels of topo I required for cell proliferation, compared with cell lines that are deficient in or underexpress topo I. Said “selectivity index” (R/S) was generated by dividing the cytotoxic IC50 of a particular compound against a camptothecin-resistant murine leukemia cell line, P388/CPT45, by the IC50 generated when using the parent P388 cell line. […] A level of selectivity was judged to be advantageous and beneficial in, for example, modulating potential undesirable side effects and/or toxicity. The compounds of the present invention were selected from compounds generically disclosed in WO 98/07433 and co-pending U.S. patent application, Ser. No. 08/914566, on the basis of an unexpected and unpredictable selectivity index (see Table I and II). […] Simple changes in the substitution of the sugar portion or the indolopyrrolocarbazole portion of the present invention will change the selectivity. This change in selectivity is not predictable by one skilled in the art.
as §1, §2
The selectivity index (R/S) is defined as the ratio obtained by dividing the IC50 value obtained using P388/CPT45 cells by that obtained using parental P388 cells. The R/S ratios used to determine the relative topo I selectivity of selected compounds of this invention are shown below in Table I.

Row | SMILES | EC50 [1] [nM] | IC50 [2] [nM] | Selectivity Index R/S (P388/CPT45 cells)
1 | CC(C)CC(N)C(=O)O[C@H]1[C@H](n2c3cc(F)c(F)cc3c3c4c(c5c6cc(F)c(F)cc6[nH]c5c32)C(=O)NC4=O)O[C@H](CF)C[C@@H]1O (stereo in doubt) [Example 5, 12-[4,6-Dideoxy-6-fluoro-2-O-leucyl-β-D-glucopyranosyl]-2,3,9,10-tetrafluoro-12,13-dihydro-5H-indolo[2,3-a]pyrrolo[3,4-c]carbazole-5,7(6H)-dione] |  | 32 | 112.5
2 | C[C@@H]1C[C@H](O)[C@@H](O)[C@H](n2c3ccc(F)cc3c3c4c(c5c6cc(F)ccc6[nH]c5c32)C(=O)NC4=O)O1 [Example 11, 12-[4,6-Dideoxy-β-D-glucopyranosyl]-3,9-difluoro-12,13-dihydro-5H-indolo[2,3-a]pyrrolo[3,4-c]carbazole-5,7(6H)-dione] |  | 16 | 125.3
3 | O=C(O)CSC[C@H]1O[C@@H](n2c3ccc(F)cc3c3c4c(c5c6cc(F)ccc6[nH]c5c32)C(=O)NC4=O)[C@H](O)[C@@H](O)[C@@H]1O [Example 1] | 50 | 57 | 101.7
4 | C[C@@]1(O)C[C@@H](CO)O[C@@H](n2c3cc(F)c(F)cc3c3c4c(c5c6cc(F)c(F)cc6[nH]c5c32)C(=O)NC4=O)[C@@H]1O [Example 29, 12-[4-Deoxy-3-methyl-β-D-allopyranosyl]-2,3,9,10-tetrafluoro-12,13-dihydro-5H-indolo[2,3-a]pyrrolo[3,4-c]carbazole-5,7(6H)-dione] |  | 5 | 539.6
5 | C[C@]1(O)C[C@@H](CO)O[C@@H](n2c3cc(F)c(F)cc3c3c4c(c5c6cc(F)c(F)cc6[nH]c5c32)C(=O)NC4=O)[C@@H]1O [Example 18, 12-[4-Deoxy-3-methyl-β-D-glucopyranosyl]-2,3,9,10-tetrafluoro-12,13-dihydro-5H-indolo[2,3-a]pyrrolo[3,4-c]carbazole-5,7(6H)-dione] |  | 8 | 184.8
6 | CNCC(=O)NC[C@H]1O[C@@H](n2c3ccc(F)cc3c3c4c(c5c6cc(F)ccc6sc5c32)C(=O)NC4=O)[C@H](O)[C@@H](O)[C@@H]1O [Example 23, 12-[6-Deoxy-6-[(N-methylglycinyl)amino]-β-D-glucopyranosyl]-3,9-difluoro-5H, 13H-benzo[b]thienyl[2,3-a]pyrrolo[3,4-c]carbazole-5,7(6H)-dione] |  | 25 | 306.8
7 | O=C1NCc2c1c1c3cc(F)ccc3[nH]c1c1c2c2cc(F)ccc2n1[C@@H]1O[C@H](CO)[C@@H](F)[C@H](O)[C@H]1O [Example 32, 12-[4-Deoxy-4-fluoro-β-D-glucopyranosyl]-3,9-difluoro-12,13-dihydro-5H-indolo[2,3-a]pyrrolo[3,4-c]carbazole-5(6H)-one] |  | 5 | 1051.8
8 | O=C1NCc2c1c1c3cc(F)ccc3n([C@@H]3O[C@H](CO)[C@@H](F)[C@H](O)[C@H]3O)c1c1[nH]c3ccc(F)cc3c21 [Example 34, 12-[4-Deoxy-4-fluoro-β-D-glucopyranosyl)-3,9-difluoro-12,13-dihydro-5H-indolo[2,3-a]pyrrolo[3,4-c]carbazole-7(6H)-one] |  | 2 | 2859.5

Continued, in another order:

Row | EC50 [1] [nM] | SMILES | IC50 [2] [nM] | Selectivity Index R/S (P388/CPT45 cells)
9 | 100 | O=C1NC(=O)c2c1c1c3cc(F)ccc3[nH]c1c1c2c2cc(F)ccc2n1[C@H]1O[C@H](CF)[C@@H](O)[C@H](O)[C@H]1O [Example 39] | 235 | 5.0
10 | 10 | C[S+]([O-])C[C@H]1O[C@H](n2c3ccc(F)cc3c3c4c(c5c6cc(F)ccc6[nH]c5c32)C(=O)NC4=O)[C@H](O)[C@@H](O)[C@@H]1O (some centres unmarked) [Example 7] | 76 | >116.4
11 | 10 | O=C1NC(=O)c2c1c1c3cc(F)ccc3[nH]c1c1c2c2cc(F)ccc2n1[C@@H]1O[C@H](CO)C(F)(F)[C@H](O)[C@H]1O [Example 25, 12-[4,4-Difluoro-4-deoxy-β-D-glucopyranosyl]-3,9-difluoro-12,13-dihydro-5H-indolo[2,3-a]pyrrolo[3,4-c]carbazole-5,7(6H)-dione] | 3 | 381.5
12 | 240 | O=C1NC(=O)c2c1c1c3cc(F)ccc3sc1c1c2c2cc(F)ccc2n1[C@@H]1O[C@H](CSc2nccc(O)n2)[C@@H](O)[C@H](O)[C@H]1O [Example 35] | > 7680 | <1.0
13 | 30 | O=C1NC(=O)c2c1c1c3cc(F)ccc3[nH]c1c1c2c2cc(F)ccc2n1[C@@H]1O[C@H](CF)C[C@H](O)[C@H]1O [Example 15] | 5 | >149.7
14 | 60 | O=C1NC(=O)c2c1c1c3cc(F)ccc3sc1c1c2c2cc(F)ccc2n1[C@@H]1O[C@H](CF)[C@@H](O)[C@H](O)[C@H]1O [Example 3] | 16 | 110.4
